From patent publication US20150158862A1, “1,3-DIHYDRO-2H-BENZIMIDAZOL-2-ONE DERIVATIVES SUBSTITUTED WITH HETEROCYCLES AS RESPIRATORY SYNCYTIAL VIRUS ANTIVIRAL AGENTS” (Janssen R&D Ireland, priority 2012, published 2015) come the findings set out here.

Where only a bound is given, the exact number is not on record here.

Data set [1] has as its system rgRSV224 virus. In words: Antiviral activity: inhibition of GFP expression of rgRSV224 virus in HeLa cells. The format is cell-based, respiratory syncytial virus (RSV). The following applies: human respiratory syncytial virus, 72 h, read-out: WT activity EC50. The procedure:
(§1) Black 96-well clear-bottom microtiter plates (Corning, Amsterdam, The Netherlands) were filled in duplicate using a customized robot system with serial 4-fold dilutions of compound in a final volume of 50 μl culture medium [RPMI medium without phenol red, 10% FBS, 0.04% gentamycin (50 mg/ml) and 0.5% DMSO]. Then, 100 μl of a HeLa cell suspension (5×10^4 cells/ml) in culture medium was added to each well followed by the addition of 50 μl rgRSV224 (MOI=0.02) virus in culture medium using a multidrop dispenser (Thermo Scientific, Erembodegem, Belgium). rgRSV224 virus is an engineered virus that includes an additional GFP gene (Hallak et al, 2000) and was in-licensed from the NIH (Bethesda, Md., USA). Medium, virus- and mock-infected controls were included in each test. Cells were incubated at 37° C. in a 5% CO2 atmosphere. Three days post-virus exposure, viral replication was quantified by measuring GFP expression in the cells by a MSM laser microscope (Tibotec, Beerse, Belgium). The EC50 was defined as the 50% inhibitory concentration for GFP expression. In parallel, compounds were incubated for three days in a set of white 96-well microtitier plates (Corning) and the cytotoxicity of compounds in HeLa cells was determined by measuring the ATP content of the cells using the ATPlite kit (PerkinElmer, Zaventem, Belgium) according to the manufacturer's instructions. The CC50 was defined as the 50% concentration for cytotoxicity.

Data set [2] can be described thus: in vitro. The format is cell-based. The following applies: human. The procedure:
as §1

With `Cc1cccc2c1n(C1CC1)c(=O)n2Cc1nc2nc(Cl)ccc2n1CCC(C)C` [Compound P10, 1-((5-chloro-1-isopentyl-1H-imidazo[4,5-b]pyridin-2-yl)methyl)-3-cyclopropyl-4-methyl-1H-benzo[d]imidazol-2(3H)-one], the half-maximal effective concentration (EC50) (usually the concentration giving half of the maximal effect) in data set [1] was 398 nM. Also, in data set [2], the CC50 (commonly the concentration giving 50% cytotoxicity) at 3 days was greater than 50000 nM.

In the case of `CS(=O)(=O)CCCn1c(Cn2c(=O)n(C3CC3)c3c(Cl)cccc32)cc2cc(Cl)ccc21` [Compound P6], in data set [1], the concentration for a half-maximal effect (EC50) was 631 nM. The compound further gave a 50% cytotoxic concentration (CC50) at 3 days in data set [2] of 31600 nM.

Regarding `CC(C)CCn1c(Cn2c(=O)n(C3CC3)c3c(Cl)cccc32)nc2nc(Cl)ccc21` [Compound P9, 4-chloro-1-((5-chloro-1-isopentyl-1H-imidazo[4,5-b]pyridin-2-yl)-methyl)-3-cyclopropyl-1H-benzo[d]imidazol-2(3H)-one], the EC50 in data set [1] was 794 nM. The compound also had a CC50 at 3 days in data set [2] greater than 25000 nM.

On to `Cc1cccc2c1n(C1CC1)c(=O)n2Cc1cc2nc(Cl)ccc2n1CCCC(F)(F)F` [Compound P11, 1-((5-chloro-1-(4,4,4-trifluorobutyl)-1H-pyrrolo[3,2-b]pyridin-2-yl)-methyl)-3-cyclopropyl-4-methyl-1H-benzo[d]imidazol-2(3H)-one], for which the EC50 in data set [1] was 6310 nM. The same compound yielded a 50% cytotoxic concentration (CC50) at 3 days in data set [2] of 12600 nM.

Turning to `Cc1cncc2c1n(CC(F)(F)F)c(=O)n2Cc1cc2cc(Cl)ccc2n1CCCS(C)(=O)=O` [Compound P8, 3-((5-chloro-1-(3-(methylsulfonyl)propyl)-1H-indol-2-yl)methyl)-7-methyl-1-(2,2,2-trifluoroethyl)-1H-imidazo[4,5-c]pyridin-2(3H)-one], in data set [1], the EC50 was 100 nM. For the same compound, in data set [2], the CC50 at 3 days came to 50100 nM.

For the compound `O=c1n(Cc2cc3cc(Cl)ccc3n2CCCC(F)(F)F)c2cncc(Cl)c2n1CC(F)(F)F` [Compound P2], the EC50 in data set [1] came to 100 nM. The same compound yielded a CC50 at 3 days in data set [2] greater than 100000 nM.

Regarding `O=c1n(Cc2cc3cc(Cl)ccc3n2CCCC(F)(F)F)c2cccc(Cl)c2n1CC(F)(F)F` [Compound P7, 4-chloro-1-((5-chloro-1-(4,4,4-trifluorobutyl)-1H-indol-2yl)methyl)-3-(2,2,2-trifluoroethyl)-1H-benzo [d]imidazol-2(3H)-one], the CC50 at 3 days in data set [2] is greater than 100000 nM.

For `CS(=O)(=O)CCCn1c(Cn2c(=O)n(CC(F)(F)F)c3c(Cl)cncc32)cc2cc(Cl)ccc21` [Compound P5, 7-chloro-3-((5-chloro-1-(3-(methylsulfonyl)propyl)-1H-indol-2-yl)-methyl)-1-(2,2,2-trifluoroethyl)-1H-imidazo[4,5-c]pyridin-2(3H)-one], the concentration for a half-maximal effect (EC50) in data set [1] is 25.1 nM. For the same compound, in data set [2], half-maximal cytotoxicity (CC50 at 3 days) was put at 31600 nM.

For `CS(=O)(=O)CCCn1c(Cn2c(=O)n(C3CC3)c3c(Cl)cncc32)cc2cc(Cl)ccc21` [Compound P3], in data set [1], the EC50 was determined as 19.9 nM. Further, in data set [2], the CC50 at 3 days is greater than 100000 nM.

Take `CS(=O)(=O)CCCn1c(Cn2c(=O)n(CC(F)(F)F)c3c(Cl)cccc32)cc2cc(Cl)ccc21` [Compound P1, 4-chloro-1-((5-chloro-1-(3-(methylsulfonyl)-propyl)-1H-indol-2-yl)methyl)-3-(2,2,2-trifluoroethyl)-1H-benzo[d]imidazo-2(3H)-one]: the EC50 in data set [1] was 398 nM. This compound displayed a CC50 at 3 days in data set [2] greater than 100000 nM.

For the compound `Cc1cncc2c1n(C1CC1)c(=O)n2Cc1cc2cc(Cl)ccc2n1CCCS(C)(=O)=O` [Compound P4], the EC50 in data set [1] was 19.9 nM. In data set [2], this compound gave a half-maximal cytotoxic concentration (CC50) at 3 days greater than 100000 nM.
